Laboratory results published in patent publication US11198687B2, “Heteroaryl allosteric modulators of nicotinic acetylcholine receptors” (Merck Sharp & Dohme Corp., priority 2017, dated 2021).
pEC50: −log10 of the molar value. Read-outs that look alike come from different tables or passages of the source.

Molecular target: human α7 nAChR (Homo sapiens, UniProt P36544)
Experiment: Automated patch-clamp electrophysiology functional assay (Assay A)
Type: cell-based
Settings: IonFlux HT whole-cell population patch, HEK cell line stably expressing human RIC-3 and human α7, 40 μM acetylcholine
Description: The α7 nAChR positive allosteric modulator (PAM) activity of the present compounds may be tested using assays known in the art. […] The assay was performed using the IonFlux HT in a whole-cell, population patch configuration. See Golden et al. Assay Drug Dev. Technol. (2011) 9:608-619. The compounds were assessed for their ability to modulate the function of the human α7 nAChR stably expressed in a HEK cell line both in the presence, and in the absence of the natural α7 agonist acetylcholine. By performing a series of such measurements at different concentrations, the effective concentration of the α7 nAChR PAMs (EC50) was determined. See Spencer et al. Assay Drug Dev. Technol. (2012) 10:313-324.
Direct activation of α7 (agonism), and potentiation of acetylcholine-evoked α7 currents was determined as follows:
Automated Patch-Clamp Electrophysiology Functional Assay (Assay A)
Automated patch-clamp electrophysiology was performed using the IonFlux HT (Fluxion Biosciences Inc., San Francisco, Calif.) in the whole-cell, population patch configuration. Test compounds were assessed for their ability to modulate the function of the α7 nicotinic acetylcholine receptor both in the presence, and in the absence of the natural α7 agonist acetylcholine. A HEK cell line stably expressing both human RIC-3 and human α7 (PrecisION hnAChR α7/RIC-3, Eurofins Pharma, St. Charles, Mo.) was cultured in 175 cm^2 triple-layer tissue culture flasks to no more than 90% confluency in DMEM/F-12 growth media supplemented with 10% heat-inactivated fetal bovine serum, 1% non-essential amino acids, 0.625 μg/mL Puromycin, and 400 μg/mL Geneticin. Immediately prior to assay, cells were detached by first aspirating growth media, rinsing with Dulbecco's phosphate buffered saline, and then adding 10 mL of Accutase (Innovative Cell Technologies, San Diego, Calif.) to the flask and then incubating at 37° C. for 5 minutes. Detached cells were then recovered by the addition of 40 mL of CHO-serum-free media supplemented with 25 mM HEPES, and rocked gently in a 50 mL conical tube for 20 minutes prior to patch-clamp assay. […] The cell suspension was added to the cell inlet wells on an IonFlux HT population patch plate which had previously been rinsed and primed with deionized H2O. Test compounds were serially diluted in DMSO and then resuspended to the final test concentration in external recording solution, with, or without 40 μM acetylcholine added to the external recording solution; test compounds were then transferred to the lonFlux HT population patch plate. Internal recording solution (110 mM TrisPO4, 28 mM TrisBase, 0.1 mM CaCl2, 2 mM MgCl2, 11 mM EGTA, 4 mM MgATP) was added to the internal recording solution inlet wells on the IonFlux HT patch plate previously loaded with cells and test compounds, and the plate loaded into the IonFlux HT instrument. A protocol was executed on the IonFlux HT to trap the cells, break into the cells, and establish the whole-cell recording configuration; cells were voltage-clamped at a holding potential of −60 mV for the duration of the experiment, all experiments were conducted at room temperature, and the IonFlux HT injection pressure was 8 psi for solution applications. Upon establishing the whole-cell configuration, external recording solution was perfused into the recording chambers for 120 seconds and then 40 μM acetylcholine was applied for 1 second and immediately washed off with external recording solution for 60 seconds. The 40 μM acetylcholine-evoked α7 current served as the current response to which subsequent test compound effects, in the presence, or in the absence of 40 μM acetylcholine would be quantified relative to. Next, test compounds were evaluated at multiple concentrations for their ability to induce, or modulate α7 current responses; three concentrations of test compound were evaluated in ascending dose fashion per recording.

human α7 nAChR, sequence (P36544 23-502): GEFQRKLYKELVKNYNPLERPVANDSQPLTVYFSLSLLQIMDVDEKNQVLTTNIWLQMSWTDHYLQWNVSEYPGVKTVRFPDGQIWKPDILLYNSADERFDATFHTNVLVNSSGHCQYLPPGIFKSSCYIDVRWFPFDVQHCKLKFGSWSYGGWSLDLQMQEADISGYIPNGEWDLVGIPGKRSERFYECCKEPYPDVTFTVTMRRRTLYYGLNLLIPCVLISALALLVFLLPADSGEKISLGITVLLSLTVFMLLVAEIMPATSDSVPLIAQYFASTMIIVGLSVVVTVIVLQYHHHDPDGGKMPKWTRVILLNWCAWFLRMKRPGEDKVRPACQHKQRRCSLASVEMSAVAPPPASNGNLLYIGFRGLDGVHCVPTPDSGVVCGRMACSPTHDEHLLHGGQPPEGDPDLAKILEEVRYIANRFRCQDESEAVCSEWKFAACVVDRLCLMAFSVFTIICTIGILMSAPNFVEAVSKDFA

| Structure (SMILES) | pEC50 (read-out: α7 nAChR Potency) | pEC50 (read-out: α7 nAChR EC50) |
| --- | --- | --- |
| CC1(C)[C@@H](c2ccc(S(N)(=O)=O)nc2)[C@@H]1c1nc(-c2ccc(F)cc2F)no1 [Example B3, 5-{(1S,3S)-3-[3-(2,4-Difluorophenyl)-1,2,4-oxadiazol-5-yl]-2,2-dimethylcyclopropyl}pyridine-2-sulfonamide] | 5.30 to 6.30 |  |
| CC1(C)[C@@H](c2ccc(S(N)(=O)=O)nc2)[C@@H]1c1nc(-c2cncc(C(F)(F)F)c2)no1 [Example B4, 5-[(1S,3S)-2,2-Dimethyl-3-{3-[5-(trifluoromethyl)pyridin-3-yl]-1,2,4-oxadiazol-5-yl}cyclopropyl]pyridine-2-sulfonamide] | 5.30 to 6.30 | 5.60 |
| CC1(C)[C@@H](c2ccc(S(N)(=O)=O)nc2)[C@@H]1c1nc(-c2cccc(C(F)(F)F)c2)no1 [Example B5, 5-[(1S,3S)-2,2-Dimethyl-3-{3-[3-(trifluoromethyl)phenyl]-1,2,4-oxadiazol-5-yl}cyclopropyl]pyridine-2-sulfonamide] | 5.30 to 6.30 | 5.52 |
| CC1(C)[C@@H](c2ccc(S(N)(=O)=O)nc2)[C@@H]1c1nc(C2CC(F)(F)C2)no1 [Example B8, 5-{(1S,3S)-3-[3-(3,3-Difluorocyclobutyl)-1,2,4-oxadiazol-5-yl]-2,2-dimethylcyclopropyl}pyridine-2-sulfonamide] | 5.30 to 6.30 |  |
| CC1(C)[C@@H](c2ccc(S(N)(=O)=O)nc2)[C@@H]1c1nc(C2CCC2)no1 [Example B9, 5-[(1S,3S)-3-(3-Cyclobutyl-1,2,4-oxadiazol-5-yl)-2,2-dimethylcyclopropyl]pyridine-2-sulfonamide] | 5.30 to 6.30 | 6.21 |
| CC1(C)[C@@H](c2ccc(S(N)(=O)=O)nc2)[C@@H]1c1nc(CC2CC2)no1 [Example B10, 5-{(1S,3S)-3-[3-(Cyclopropylmethyl)-1,2,4-oxadiazol-5-yl]-2,2-dimethylcyclopropyl}pyridine-2-sulfonamide] | 5.30 to 6.30 | 5.80 |
| CC1(C)[C@@H](c2ccc(S(N)(=O)=O)nc2)[C@@H]1c1nc(C2CC2)no1 [Example B11, 5-[(1S,3S)-3-(3-Cyclopropyl-1,2,4-oxadiazol-5-yl)-2,2-dimethylcyclopropyl]pyridine-2-sulfonamide] | 5.30 to 6.30 |  |
| CC(C)(C)c1noc([C@H]2[C@H](c3ccc(S(N)(=O)=O)nc3)C2(C)C)n1 [Example B12, 5-[(1S,3S)-3-(3-tert-Butyl-1,2,4-oxadiazol-5-yl)-2,2-dimethylcyclopropyl]pyridine-2-sulfonamide] | 5.30 to 6.30 | 5.80 |
| CC(C)c1noc([C@H]2[C@H](c3ccc(S(N)(=O)=O)nc3)C2(C)C)n1 [Example B13, 5-{(1S,3S)-2,2-Dimethyl-3-[3-(propan-2-yl)-1,2,4-oxadiazol-5-yl]cyclopropyl}pyridine-2-sulfonamide] | 5.30 to 6.30 |  |
| CC1(C)[C@@H](c2ccc(S(N)(=O)=O)nc2)[C@@H]1c1ncc(C2CCCC2)o1 [Example B14, 5-[(1S,3S)-3-(5-Cyclopentyl-1,3-oxazol-2-yl)-2,2-dimethylcyclopropyl]pyridine-2-sulfonamide] | 5.30 to 6.30 | 6.23 |
| CC1(C)[C@@H](c2ccc(S(N)(=O)=O)nc2)[C@@H]1c1ncc(C2CCCC2)s1 [Example B16, 5-[(1S,3S)-3-(5-Cyclopentyl-1,3-thiazol-2-yl)-2,2-dimethylcyclopropyl]pyridine-2-sulfonamide] | 5.30 to 6.30 | 5.82 |
| CC1(C)[C@H](c2nc(-c3ccccc3)no2)[C@H]1c1ncc(S(N)(=O)=O)s1 [Example D9, 2-[(1R,3R)-2,2-Dimethyl-3-(3-phenyl-1,2,4-oxadiazol-5-yl)cyclopropyl]-1,3-thiazole-5-sulfonamide] | 5.30 to 6.30 | 5.77 |
| CC1(C)[C@H](c2ccc(S(N)(=O)=O)cn2)[C@H]1c1nc(-c2cccc(F)c2)no1 [Example E1, 6-{(1R,3R)-3-[3-(3-Fluorophenyl)-1,2,4-oxadiazol-5-yl]-2,2-dimethylcyclopropyl}pyridine-3-sulfonamide] | 5.30 to 6.30 | 5.40 |
| CC1(C)[C@H](c2ccc(S(N)(=O)=O)cn2)[C@H]1c1nc(C2CCCC2)no1 [Example E2, 6-[(1R,3R)-3-(3-Cyclopentyl-1,2,4-oxadiazol-5-yl)-2,2-dimethylcyclopropyl]pyridine-3-sulfonamide] | 5.30 to 6.30 | 5.49 |
| CC1(C)[C@H](c2ccc(S(N)(=O)=O)cn2)[C@H]1c1nc(-c2ccccc2)no1 [Example E3, 6-[(1R,3R)-2,2-Dimethyl-3-(3-phenyl-1,2,4-oxadiazol-5-yl)cyclopropyl]pyridine-3-sulfonamide] | 5.30 to 6.30 |  |

Other lines, results leading:

| pEC50 (read-out: α7 nAChR Potency) | pEC50 (read-out: α7 nAChR EC50) | Structure (SMILES) |
| --- | --- | --- |
| 5.30 to 6.30 |  | CC1(C)[C@H](c2ccc(S(N)(=O)=O)nc2)[C@H]1c1nc(-c2cccc(C(F)(F)F)c2)no1 [Example A10, 5-[(1R,3R)-2,2-Dimethyl-3-{3-[3-(trifluoromethyl)phenyl]-1,2,4-oxadiazol-5-yl}cyclopropyl]pyridine-2-sulfonamide] |
| 5.30 to 6.30 | 5.52 | CC1(C)[C@H](c2ccc(S(N)(=O)=O)nc2)[C@H]1c1nc(C2CC(F)(F)C2)no1 [Example A11, 5-{(1R,3R)-3-[3-(3,3-Difluorocyclobutyl)-1,2,4-oxadiazol-5-yl]-2,2-dimethylcyclopropyl}pyridine-2-sulfonamide] |
| 5.30 to 6.30 |  | CC1(C)[C@H](c2ccc(S(N)(=O)=O)nc2)[C@H]1c1nc(C2CCC2)no1 [Example A12, 5-[(1R,3R)-3-(3-Cyclobutyl-1,2,4-oxadiazol-5-yl)-2,2-dimethylcyclopropyl]pyridine-2-sulfonamide] |
| 5.30 to 6.30 |  | CC1(C)[C@H](c2ccc(S(N)(=O)=O)nc2)[C@H]1c1nc(CC2CC2)no1 [Example A13, 5-{(1R,3R)-3-[3-(Cyclopropylmethyl)-1,2,4-oxadiazol-5-yl]-2,2-dimethylcyclopropyl}pyridine-2-sulfonamide] |
| 5.30 to 6.30 | 6.24 | CC(C)c1noc([C@@H]2[C@@H](c3ccc(S(N)(=O)=O)nc3)C2(C)C)n1 [Example A14, 5-{(1R,3R)-2,2-Dimethyl-3-[3-(propan-2-yl)-1,2,4-oxadiazol-5-yl]cyclopropyl}pyridine-2-sulfonamide] |
| 5.30 to 6.30 | 5.80 | CC1(C)[C@H](c2ccc(S(N)(=O)=O)nc2)[C@H]1c1ncc(-c2ccccc2)o1 [Example A15, 5-[(1R,3R)-2,2-Dimethyl-3-(5-phenyl-1,3-oxazol-2-yl)cyclopropyl]pyridine-2-sulfonamide] |
| 6.30 to 7.00 | 6.51 | CC1(C)[C@@H](c2ccc(S(N)(=O)=O)nc2)[C@@H]1c1nc(-c2cccc(F)c2)no1 [Example B1, 5-{(1S,3S)-3-[3-(3-Fluorophenyl)-1,2,4-oxadiazol-5-yl]-2,2-dimethylcyclopropyl}pyridine-2-sulfonamide] |
| 5.30 to 6.30 | 5.77 | COc1ccc(Cl)cc1-c1noc([C@H]2[C@H](c3ccc(S(N)(=O)=O)nc3)C2(C)C)n1 [Example B2, 5-{(1S,3S)-3-[3-(5-Chloro-2-methoxyphenyl)-1,2,4-oxadiazol-5-yl]-2,2-dimethylcyclopropyl}pyridine-2-sulfonamide] |
| 6.30 to 7.00 |  | CC1(C)[C@@H](c2ccc(S(N)(=O)=O)nc2)[C@@H]1c1nc(C2CCCCC2)no1 [Example B6, 5-[(1S,3S)-3-(3-Cyclohexyl-1,2,4-oxadiazol-5-yl)-2,2-dimethylcyclopropyl]pyridine-2-sulfonamide] |
| 6.30 to 7.00 | 6.43 | CC1(C)[C@@H](c2ccc(S(N)(=O)=O)nc2)[C@@H]1c1nc(C2CCCC2)no1 [Example B7, 5-[(1S,3S)-3-(3-Cyclopentyl-1,2,4-oxadiazol-5-yl)-2,2-dimethylcyclopropyl]pyridine-2-sulfonamide] |
